Measurements as given in the NIST ThermoML archive (doi:10.1021/je400655j).

Assay: wn = mass fraction of the nth substance listed
Settings: 101 kPa, Liquid; for mass density: Vibrating tube method; for viscosity: Concentric cylinders viscometry

CC(=O)[O-].CCCCn1cc[n+](C)c1 [1-butyl-3-methylimidazolium acetate] + CC(CC(C)(C)C)CP(=O)([O-])CC(C)CC(C)(C)C.CCCCCCCCCCCCCC[P+](CCCCCC)(CCCCCC)CCCCCC
Settings	mass density, w1 = 0.2 [kg/m3]	mass density, w1 = 0.5 [kg/m3]	viscosity, w1 = 0.2 [mPa·s]	viscosity, w1 = 0.5 [mPa·s]
293 K	908.8	937.1	–	–
298 K	905.6	933.6	160	33
303 K	902.4	930.1	123	27
308 K	899.3	926.6	97	22
313 K	896.1	923.1	77	19
318 K	893	919.6	63	17
323 K	889.9	916.1	52	15
328 K	886.7	912.6	44	13
333 K	883.5	909.2	37	12
338 K	880.3	905.7	32	11
343 K	877.1	902.2	28	10

CC(CC(C)(C)C)CP(=O)([O-])CC(C)CC(C)(C)C.CCCCCCCCCCCCCC[P+](CCCCCC)(CCCCCC)CCCCCC + O
Settings	mass density, w2 = 0.05 [kg/m3]	mass density, w2 = 0.1 [kg/m3]	viscosity, w2 = 0.05 [mPa·s]	viscosity, w2 = 0.1 [mPa·s]
293 K	899.1	907.3	–	–
298 K	895.8	903.9	281	174
303 K	892.6	900.7	203	137
308 K	889.3	897.4	150	103
313 K	886.1	894.1	114	78
318 K	882.9	890.7	87	59
323 K	879.7	887.4	68	47
328 K	876.5	884	54	37
333 K	–	–	44	31
338 K	–	–	36	25
343 K	–	–	31	23
